Data set [1] concerns Mus musculus. To be noted: chronic; duration: 2 years; inhalation; M/F; degenerative lesions of the nasal cavity.
In data set [2] the test system is Mus musculus. To be noted: short-term, duration: 28 days, oral, gavage, M, C57BL/6.
The test system of data set [3] is Rattus norvegicus. The following applies: oral, gavage; for NEL / LEL: Crl:CD(SD) BR; for LOAEL / NOAEL: Sprague-Dawley.
The mark [4] stands for this setting: Liver: Catalase (CAT) Activity, Liver + Multi-organ: Interleukin 1 Beta (IL-1b) mRNA + Spleen: Interleukin 6 (IL-6) mRNA.
Where [5] appears, read: Liver: Superoxide Dismutase (SOD) Activity + Multi-organ: Catalase (CAT) Activity, Blood + Multi-organ: Interleukin 1 Beta (IL-1b), Serum + ….
Setting [6] is: chronic, duration: 92 days, M, Blood: Hematocrit (HCT) + Blood: Hemoglobin (HGB) + Blood: Red Cell Distribution Width (RDW) + Blood: Reticulocytes + Blood: Total Protein (….
The mark [7] stands for this setting: chronic, duration: 92 days, M, Blood: Mean Corpuscular Volume (MCV) + Blood: Red Blood Cell (RBC) + Kidney: Tubular Hypertrophy + Liver: Liver Weight, Relative + Liver: ….
Setting [8] is: chronic, duration: 92 days, M, Cardiovascular: Aorta: Aorta Histopathology + Cardiovascular: Heart: Heart Histopathology + Cardiovascular: Heart: Heart Weight, Absolute + ….
[9] abbreviates: chronic, duration: 92 days, M, Hematologic: Blood: Activated Partial Thromboplastin Time (APTT) + Hematologic: Blood: Hematocrit (HCT) + Hematologic: Blood: Hemoglobin (….
Where [10] appears, read: chronic, duration: 93 days, F, Blood: Hematocrit (HCT) + Blood: Hemoglobin (HGB) + Blood: Red Blood Cell (RBC) + Blood: Red Cell Distribution Width (RDW) + Blood: ….
The mark [11] stands for this setting: chronic, duration: 93 days, F, Liver: Liver Weight, Absolute + Liver: Liver Weight, Relative.
The mark [12] stands for this setting: chronic, duration: 93 days, F, Cardiovascular: Aorta: Aorta Histopathology + Cardiovascular: Heart: Heart Histopathology + Cardiovascular: Heart: Heart Weight, Absolute + ….
Setting [13] is: chronic, duration: 93 days, F, Hematologic: Blood: Activated Partial Thromboplastin Time (APTT) + Hematologic: Blood: Hematocrit (HCT) + Hematologic: Blood: Hemoglobin (….
The mark [14] stands for this setting: developmental, duration: 14 days, M/F, generation: F1, F1: Pelvis: Litters with Pelvis, Incomplete Ossification + F1: Pelvis: Pelvis, Incomplete Ossification + F1: Rib: Litters with Rib, Wavy + ….
The mark [15] stands for this setting: developmental, duration: 14 days, M/F, generation: F1, F1: Skull: Litters with Skull, Incomplete Ossification + F1: Skull: Skull, Incomplete Ossification.
Where [16] appears, read: developmental, duration: 14 days, M/F, generation: F1, F1: Developmental: Head: Fetal Alterations Count, Head Malformations + F1: Developmental: Head: Litters with Head Malformations + F1: ….
[17] abbreviates: developmental, duration: 14 days, M/F, generation: F1, F1: Developmental: Rib: Rib, Wavy + F1: Developmental: Skull: Litters with Skull, Incomplete Ossification + F1: Developmental: Sternebra: ….
Where [18] appears, read: reproduction developmental, duration: 14 days, F, generation: P0, P0: Fur: Stained Fur + P0: Hair/Fur: Alopecia + P0: Intestine: Soft or Liquid Feces + P0: Whole Body: Hunched Posture + P0: Whole Body: ….
The mark [19] stands for this setting: reproduction developmental, duration: 14 days, F, generation: P0, P0: Developmental: Uterus: Implantation.
The mark [20] stands for this setting: reproduction developmental, duration: 14 days, F, generation: P0, P0: Developmental: Uterus: Implantation + P0: Developmental: Uterus: Resorptions, Mean/Litter + P0: Developmental: Whole Body: No. Male Pups….
[21] abbreviates: reproduction developmental, duration: 14 days, F, generation: P0, P0: Developmental: Whole Body: No. Male Pups per No. of Pups Sexed + P0: General Toxicity: Whole Body: Hunched Posture + P0: General ….

In general, LOAEL refers to the lowest tested level that showed an adverse finding. The term NOAEL denotes the highest tested level that showed no adverse finding.

Regarding `CCC1CO1` (configuration not stated) [1,2-Epoxybutane], the LOAEL in data set [1] came out at 147 mg/m3.
Take `OCCC(F)(F)C(F)(F)C(F)(F)C(F)(F)C(F)(F)C(F)(F)C(F)(F)C(F)(F)F` [2-(Perfluorooctyl)ethanol]: the LEL stood at 100 mg/kg-day in data set [2] (setting [4]); 10 mg/kg-day in data set [2] (Liver: Liver Histopathology + Liver: Liver Weight, Absolute + Liver: Liver Weight, Relative + Multi-organ: Chemokine C-X-C motif Ligand 1 (…); 30 mg/kg-day in data set [2] (setting [5]); 125 mg/kg-day in data set [3] (setting [6]); 25 mg/kg-day in data set [3] (setting [7]); 1 mg/kg-day in data set [3] (chronic, duration: 92 days, M, Liver: Cholesterol (CHOL), Total, Blood + Thyroid: Colloid Alteration). The LEL in data set [3] (setting [10]) turned out to be 125 mg/kg-day; in data set [3] (setting [11]), 25 mg/kg-day; in data set [3] (setting [14]), 500 mg/kg-day; in data set [3] (setting [15]) it was 200 mg/kg-day; in data set [3] (setting [18]) it was 500 mg/kg-day. Also, the NEL in data set [2] (setting [4]) is 30 mg/kg-day; in data set [2] (Liver: Glutathione (GSH), Liver + Multi-organ: Chemokine C-X-C motif Ligand 1 (CXCL-1), Serum + Multi-organ: Interleukin 6 (IL-6) mRNA + …), 100 mg/kg-day; in data set [2] (setting [5]), 10 mg/kg-day; in data set [3] (chronic, duration: 92 days, M, Adrenal: Adrenal Gland Histopathology + Adrenal: Adrenal Gland Weight, Absolute + Adrenal: Adrenal Gland Weight, Relative + Aorta: Aorta …), 125 mg/kg-day; in data set [3] (setting [6]), 25 mg/kg-day; in data set [3] (setting [7]), 5 mg/kg-day. In addition, the NEL in data set [3] (chronic, duration: 93 days, F, Adrenal: Adrenal Gland Histopathology + Adrenal: Adrenal Gland Weight, Absolute + Adrenal: Adrenal Gland Weight, Relative + Aorta: Aorta …) is 125 mg/kg-day; in data set [3] (setting [10]), 25 mg/kg-day; in data set [3] (setting [11]), 5 mg/kg-day; in data set [3] (developmental, duration: 14 days, M/F, generation: F1, F1: Head: Fetal Alterations Count, Head Malformations + F1: Head: Litters with Head Malformations + F1: Kidney: Litters with Small Renal …), 500 mg/kg-day; in data set [3] (setting [14]) it was 200 mg/kg-day; in data set [3] (setting [15]), 50 mg/kg-day. Also, the NEL in data set [3] (setting [18]) was found to be 200 mg/kg-day; in data set [3] (reproduction developmental, duration: 14 days, F, generation: P0, P0: Ovary: Corpora Lutea + P0: Uterus: Implantation + P0: Uterus: Resorptions, Mean/Litter + P0: Whole Body: Male Pups per Pups Sexed), 500 mg/kg-day. Also, the LOAEL worked out at 1 mg/kg-day in data set [3] (setting [8]); 1 mg/kg-day in data set [3] (chronic, duration: 92 days, M, Endocrine: Adrenal: Adrenal Gland Histopathology + Endocrine: Adrenal: Adrenal Gland Weight, Absolute + Endocrine: Adrenal: Adrenal Gland …); 25 mg/kg-day in data set [3] (setting [9]); 1 mg/kg-day in data set [3] (setting [12]); 1 mg/kg-day in data set [3] (chronic, duration: 93 days, F, Endocrine: Adrenal: Adrenal Gland Histopathology + Endocrine: Adrenal: Adrenal Gland Weight, Absolute + Endocrine: Adrenal: Adrenal Gland …); 25 mg/kg-day in data set [3] (setting [13]). In addition, the LOAEL in data set [3] (setting [16]) stood at 200 mg/kg-day; in data set [3] (setting [17]) it was 500 mg/kg-day; in data set [3] (setting [19]), 500 mg/kg-day; in data set [3] (setting [20]), 200 mg/kg-day; in data set [3] (setting [21]), 200 mg/kg-day. The NOAEL in data set [3] (setting [8]) is 125 mg/kg-day; in data set [3] (setting [9]), 5 mg/kg-day; in data set [3] (setting [12]), 125 mg/kg-day; in data set [3] (setting [13]), 5 mg/kg-day; in data set [3] (setting [16]), 20 mg/kg-day; in data set [3] (setting [17]), 200 mg/kg-day. Further, the no-observed-adverse-effect level (NOAEL) in data set [3] (setting [19]) was 200 mg/kg-day; in data set [3] (setting [20]), 20 mg/kg-day; in data set [3] (reproduction developmental, duration: 14 days, F, generation: P0, P0: Developmental: Uterus: Resorptions, Mean/Litter) it was 500 mg/kg-day; in data set [3] (setting [21]) it was 20 mg/kg-day.

(Values after EPA's ToxValDB 9.5.)
